Laboratory results as given in patent publication US20230124862A1, “BISMUTH THIOL COMPOUNDS AND COMPOSITIONS AND METHODS OF TREATING MICROBIAL CO-INFECTIONS” (Microbion Corporation, priority 2020, published 2023).
Values after ≈ are worked out from the molar mass of the structure shown. Values joined by “and” are separate entries in the source; they are usually repeats but may differ in a detail not shown here. Identical values can stand only once. Like-named read-outs stand apart in the source and are kept apart here.

Tests used:
[1] = test system: S. aureus ATCC 29213; conditions: CLSI established QC range; cited from earlier work
[2] = test system: S. aureus ATCC 29213; assay: Broth microdilution MIC (Example 12), ATCC QC organism; conditions: ATCC QC organism (Table 102)
[3] = test system: vancomycin-intermediate Staphylococcus aureus (VISA); assay: Broth microdilution MIC (Example 12); assay type: cell-based
[4] = test system: Aspergillus spp.; assay: Antifungal broth microdilution (Example 13); assay type: cell-based, A. niger, A. terreus, A. fumigatus, A. flavus
[5] = test system: Candida krusei; conditions: C. krusei ATCC 6258, CLSI established QC range, cited from earlier work
[6] = test system: C. parapsilosis ATCC 22019; assay: Antifungal broth microdilution (Example 13), QC organism; assay type: cell-based, Candida parapsilosis; conditions: 24 hr, comparators, single value
[7] = test system: fungal pathogens; assay: Antifungal activity, NIH/NIAID sponsored study; assay type: cell-based; conditions: 50% endpoint
[8] = test system: C. parapsilosis ATCC 22019; conditions: C. parapsilosis ATCC 22019, CLSI established QC range, cited from earlier work
[9] = test system: Candida krusei; assay: Antifungal broth microdilution (Example 13); assay type: cell-based; conditions: C. krusei ATCC 6258, comparators, single value
[10] = test system: S. aureus ATCC 29213; assay: MIC control strain; conditions: QC organism, Example 13
[11] = test system: E. coli ATCC 25922; assay: MIC control strain; conditions: QC organism, Example 13
[12] = test system: Candida spp.; conditions: C. parapsilosis MMX 2323 (ATCC 22019), cited from earlier work
[13] = test system: Candida spp.; assay: Broth microdilution MIC (Example 11); assay type: cell-based, C. parapsilosis, C. albicans, C. glabrata, C. tropicalis; conditions: read-out: MIC
[14] = test system: Enterobacteriaceae; conditions: E. coli MMX 102 (ATCC 25922); CLSI QC ranges shown in parenthesis; cited from earlier work
[15] = test system: S. aureus; assay: Broth microdilution MIC (Example 11); assay type: cell-based, Staphylococcus aureus; conditions: Staphylococcus aureus, ATCC 29213 / MSSA, S. aureus MMX 101 (ATCC 29213); QC; MSSA; read-out: MIC
[16] = test system: Enterococcus spp.; assay: Broth microdilution MIC (Example 11); assay type: cell-based, E. faecalis, E. faecium; conditions: Lev^R Cip^R Ery^R, read-out: MIC
[17] = test system: S. pneumoniae; conditions: S. pneumoniae MMX 6837 (ATCC 49619); cited from earlier work
[18] = test system: P. aeruginosa and A. baumannii; conditions: P. aeruginosa MMX 103 (ATCC 27853); CLSI QC ranges shown in parenthesis; cited from earlier work
[19] = test system: P. aeruginosa; assay: Checkerboard FIC/FICI assay; assay type: cell-based, Pseudomonas aeruginosa; conditions: for FICB / MICB: Meropenem in combination with BisEDT; for MIC: Pseudomonas aeruginosa, Meropenem alone (checkerboard with BisEDT), read-out: Drug B MIC
[20] = test system: S. aureus; conditions: S. aureus MMX 101 (ATCC 29213); cited from earlier work
[21] = test system: Burkholderia cepacia complex; assay: Checkerboard FIC/FICI assay; assay type: cell-based, Burkholderia spp.; conditions: for MIC: Meropenem alone, panel with BisEDT, read-out: Drug B MIC
[22] = P. aeruginosa 6322, one value per panel row C-G
[23] = P. aeruginosa 7745, by checkerboard
[24] = P. aeruginosa 8798, by checkerboard
[25] = P. aeruginosa 9108, by checkerboard
[26] = B. cepacia 1793, Meropenem in combination with BisEDT, by checkerboard

Structure (SMILES): CCC[C@@H]1C[C@@H](C(=O)N[C@@H]([C@H]2O[C@H](SC)[C@H](O)[C@@H](O)[C@H]2O)[C@H](C)Cl)N(C)C1 [CLI]
- QC range of MIC [1]: (0.06-0.25) μg/mL
- MIC [2]: 0.25 µg/mL (≈ 0.588 µM)
- MIC ([3]; S. aureus NRS 1 (hVISA)): >8 µg/mL
- MIC ([3]; S. aureus NRS 2): >8 µg/mL
- MIC ([3]; S. aureus NRS 3): >8 µg/mL
- MIC ([3]; S. aureus NRS 4): >8 µg/mL
- MIC ([3]; S. aureus NRS 13): 0.06 µg/mL (≈ 0.141 µM)
- MIC ([3]; S. aureus NRS 18): >8 µg/mL
- MIC ([3]; S. aureus NRS 22): >8 µg/mL
- MIC ([3]; S. aureus NRS 24 (hVISA)): >8 µg/mL
- MIC ([3]; S. aureus NRS 27): >8 µg/mL

Structure (SMILES): OC(Cn1cncn1)(Cn1cncn1)c1ccc(F)cc1F [Fluconazole]
- MIC 24 hr ([4]; A. flavus ATCC 204304): > 64 µg/mL
- MIC 48 hr ([4]; A. flavus ATCC 204304): > 64 µg/mL
- MIC 24 hr ([4]; A. fumigatus ATCC MYA-3626): > 64 µg/mL
- MIC 48 hr ([4]; A. fumigatus ATCC MYA-3626): > 64 µg/mL
- QC Range 24 hr ([5]; 24 hr): 8-64
- QC Range 48 hr ([5]; 48 hr): 16-128
- MIC 24 hr [6]: 1 µg/mL (≈ 3.27 µM)
- MIC50 ([7]; Candida albicans, read-out: Antifungal activity, MIC 50%, C. albicans CA1): ≤ 0.125 µg/mL
- MIC50 ([7]; Candida albicans, read-out: Antifungal activity, MIC 50%, C. albicans CA2): ≤ 0.125 µg/mL
- MIC50 ([7]; Candida albicans, read-out: Antifungal activity, MIC 50%, C. albicans CA3): > 64 µg/mL
- MIC50 ([7]; Candidozyma auris, read-out: Antifungal activity, MIC 50%, C. auris Cau1): > 64 µg/mL
- MIC50 ([7]; Candidozyma auris, read-out: Antifungal activity, MIC 50%, C. auris Cau2): 2 µg/mL (≈ 6.53 µM)
- MIC50 ([7]; Candidozyma auris, read-out: Antifungal activity, MIC 50%, C. auris Cau3): > 64 µg/mL
- MIC50 ([7]; Cryptococcus neoformans, read-out: Antifungal activity, MIC 50%, C. neoformans CN1): 64 µg/mL (≈ 209 µM)
- MIC50 ([7]; Cryptococcus neoformans, read-out: Antifungal activity, MIC 50%, C. neoformans CN2): 64 µg/mL (≈ 209 µM)
- MIC50 ([7]; Cryptococcus neoformans, read-out: Antifungal activity, MIC 50%, C. neoformans CN3): 2 µg/mL (≈ 6.53 µM)
- MIC50 ([7]; Lodderomyces parapsilosis, ATCC22019, read-out: Antifungal activity, MIC 50%, C. parapsilosis ATCC22019): 1 µg/mL (≈ 3.27 µM)
- MIC50 ([7]; Pichia kudriavzevii, ATCC6258, read-out: Antifungal activity, MIC 50%, C. krusei ATCC6258): 16 µg/mL (≈ 52.2 µM)
- QC Range 24 hr ([8]; 24 hr): 0.5-4
- QC Range 48 hr ([8]; 48 hr): 1-4
- MIC 24 hr ([9]; 24 hr): 16 µg/mL (≈ 52.2 µM)
- MIC 48 hr ([9]; 48 hr): 32 µg/mL (≈ 104 µM)
- MIC 24 hr [10]: >64
- MIC 24 hr [11]: >64
- CLSI QC range of MIC ([12]; 24 hr): 0.5 to 4 µg/mL
- CLSI QC range of MIC ([12]; 48 hr): 1 to 4 µg/mL
- MIC ([13]; 24 h, C. albicans MMX 7039, Sensitive, incubation 24 hr): 0.5 µg/mL (≈ 1.63 µM)
- MIC ([13]; 24 h, C. glabrata MMX 7318, FLU^R, incubation 24 hr): > 64 µg/mL
- MIC ([13]; 24 h, C. parapsilosis MMX 2323 (ATCC 22019), QC, incubation 24 hr): 2 µg/mL (≈ 6.53 µM)
- MIC ([13]; 24 h, C. parapsilosis MMX 7370, FLU^R, incubation 24 hr): 32 µg/mL (≈ 104 µM)
- MIC ([13]; 24 h, C. tropicalis MMX 7247, FLU^R, incubation 24 hr): 64 µg/mL (≈ 209 µM)
- MIC ([13]; 24 h, C. tropicalis MMX 7360, FLU^R, incubation 24 hr): 64 µg/mL (≈ 209 µM)
- MIC ([13]; 48 h, C. albicans MMX 7039, Sensitive, incubation 48 hr): 0.5 µg/mL (≈ 1.63 µM)
- MIC ([13]; 48 h, C. albicans MMX 7055, Sensitive, incubation 48 hr): 0.5 µg/mL (≈ 1.63 µM)
- MIC ([13]; 48 h, C. glabrata MMX 7318, FLU^R, incubation 48 hr): > 64 µg/mL
- MIC ([13]; 48 h, C. glabrata miX 7086, FLU^R, incubation 48 hr): 64 µg/mL (≈ 209 µM)
- MIC ([13]; 48 h, C. parapsilosis MMX 2323 (ATCC 22019), QC, incubation 48 hr): 2 µg/mL (≈ 6.53 µM)
- MIC ([13]; 48 h, C. parapsilosis MMX 7555, FLU^R, incubation 48 hr): 64 µg/mL (≈ 209 µM)
- MIC ([13]; 48 h, C. tropicalis MMX 7247, FLU^R, incubation 48 hr): > 64 µg/mL
- MIC ([13]; 48 h, C. tropicalis MMX 7248, FLU^R, incubation 48 hr): > 64 µg/mL
- MIC ([13]; 48 h, C. tropicalis MMX 7360, FLU^R, incubation 48 hr): > 64 µg/mL

Structure (SMILES): C[C@@H](O)[C@H]1C(=O)N2C(C(=O)O)=C(S[C@@H]3CN[C@H](C(=O)N(C)C)C3)[C@H](C)[C@H]12 [Meropenem]
- MIC, CLSI QC range [14]: (0.008-0.06) μg/mL
- MIC [15]: 0.06 µg/mL (≈ 0.156 µM)
- MIC ([16]; E. faecalis MMX 8960, VRE): 8 µg/mL (≈ 20.9 µM)
- MIC ([16]; E. faecalis MMX 8962, VRE): 2 µg/mL (≈ 5.22 µM)
- MIC ([16]; E. faecium MMX 485, VRE vanA): > 64 µg/mL
- MIC ([16]; E. faecium MMX 752, VRE vanA): > 64 µg/mL
- CLSI QC range of MIC [17]: (0.06-0.25) μg/mL
- MIC, CLSI QC range [18]: (0.25-1) μg/mL
- FICB [19, 22]: 1
- MICB [19, 22]: 16 µg/mL
- FICB [19, 23]: 0.25 and 0.5
- MICB [19, 23]: 4 µg/mL and 8 µg/mL
- FICB [19, 24]: 1
- MICB [19, 24]: 32 µg/mL
- FICB [19, 25]: 1
- MICB [19, 25]: 0.001 µg/mL
- MIC ([19]; P. aeruginosa 6977): 8 µg/mL
- MIC ([19]; P. aeruginosa 7745): 16 µg/mL
- MIC ([19]; P. aeruginosa 8798): 32 µg/mL
- CLSI QC range of MIC [20]: (0.03-0.12) μg/mL
- FICB ([21]; B. cenocepacia 548, FIC of Meropenem (Drug B) in combination with BisEDT): 0.5 and 1
- MICB ([21]; B. cenocepacia 548, MIC of Meropenem (Drug B) in combination with BisEDT): 2 µg/mL and 4 µg/mL
- MIC ([21]; B. cenocepacia 548): 4 µg/mL
- FICB ([21]; B. cenocepacia 813, FIC of Meropenem (Drug B) in combination with BisEDT): 0.5 and 1
- MICB ([21]; B. cenocepacia 813, MIC of Meropenem (Drug B) in combination with BisEDT): 1 µg/mL and 2 µg/mL
- MIC ([21]; B. cenocepacia 813): 2 µg/mL
- FICB ([21]; B. cepacia 546, Meropenem in combination with BisEDT, by checkerboard): 1 and 2
- FICB [21, 26]: 2 and 4
- MICB [21, 26]: 8 µg/mL and 16 µg/mL
- FICB ([21]; B. multivorans 1795, FIC of Meropenem (Drug B) in combination with BisEDT): 1
- MICB ([21]; B. multivorans 1795, MIC of Meropenem (Drug B) in combination with BisEDT): 4 µg/mL
